Assay results reported in US20250276066A1, “METHODS, COMPOSITIONS AND COMPOUNDS FOR TREATING AGE-RELATED DISEASES AND CONDITIONS” (GERO PTE. LTD., priority 2021, published 2025).
Like-named read-outs stand apart in the source and are kept apart here.

Tests used:
C. elegans = C. elegans lifespan screening (survival) assay; assay type: in vivo, Caenorhabditis elegans; conditions: for Mean LS ext., %: mean lifespan extension vs control, doses (uM); for Mean LS*: mean lifespan, dose uM: Panobinostat 1, Entinostat 10, Topotecan 5, PI-103 10, PHA-793887 10, Triptolide 10, KU-0063794 10, Trichostatin A 2, control 22.2 d
From the text: • 1. […] Then, with the help of linear gene-wise regression, we identified the transcriptomic aging signature, the list of genes that have statistically significant association with age rescaled by lifespan (the first list). • 3. Genes in the aging signature that have positive correlation with age rescaled by lifespan are over-expressed in late life of the animals, and if a gene's correlation is negative its gene expression decreases with age. • 4. […] The identified aging signature represents a vector of the aging-related changes of gene expression. […] This was done by projecting out all gene expression changes along the aging signature. • 6. After that, by gene-wise linear regression, we identified the list of genes that had statistically significant correlation with lifespan of long-lived strains. That list represents the PI3K-null signature. Genes in the PI3K-null signature that have positive correlation with lifespan are over-expressed in long-lived strains, and vise versa, genes with negative correlations have lower gene expression levels in long-lived mutants with respect to the control lines. • 7. […] Therefore, we would affect the aging process and either slow-down it or reverse it. • 8. We combined those lists, and identified the lists of their human orthologs. • 9. The inhibition of these genes or/and the proteins translated from those genes in humans will also produce life-extending effects. • 10. The predictive value of the aging signature was previously experimentally tested in paper. Along the lines of paper, to test the predictive value of the PI3K-null signature, we identified novel life-extending pharmacological interventions by comparing this signatures with gene expression profile changes in response to pharmacologic perturbations from the Connectivity Map (CMAP) database. Using the PI3K-null signature, we predicted perturbagen-compounds opposing the transcriptomic signature distinguishing long-lived C. elegans mutant strains with a slow aging rate from short-lived strains with a fast aging rate (see Table […] and T1b). To eliminate the confounding effect of different biological ages of nematodes in experimental cohorts, we applied the algorithm developed earlier. From the top of predicted compounds, we selected 8 compounds for a follow-up lifespan screening in C. elegans assay (see Figure F1, Table T2). • 11. We successfully tested the selected compounds in C. elegans survival assay (see Figure F1, Table T2). All 8 compounds produced a significant lifespan extension effect (according to the Log-rank Mantel-Cox method, all results are with p<0.05). Therefore, we experimentally validated the PI3K-null signature's pipeline for the identification of new life-extending compounds. • 12. […] CDK7, CHEK2, CAPN1, CTSB, HSP90AB1, HSP90AA1, HSPA5, NFKB1, NPC1, PABPC1, ABCB11, ABCB1, PLK1, PLK3, ADRA2A, ADRA2C, ADRA2B, TUBB6, SENP8, SENP6, SENP7, MMP14, MMP13, MMP8, MMP3, MMP1, MAPKAPK2, CTSL, CTSK, CTSS, ATXN2, TBXAS1, CREBBP, PDGFRA, FLT4, FLT1, KDR, PDGFRB, FLT3, KIT, CSF1R, IKBKB, IKBKE, PGGT1B, FAAH, GFER, MAPK14, MAPK12, PRKAA1, ABCG2, ADAM17, BACE2, BACE1, TUBB6, CA7, CA2, CA1, CA5A, CA12, CA9, CA4, CTSB, FEN1, HDAC1, HDAC2, HDAC3, CBX1, SLC6A4, SLC6A2, SLC6A3, PPARD, PPARG, PPARA, PSEN2, HTR7, ADRA1B, SMN2, FYN, SRC, LCK, LYN, TARDBP, CLK2, CLK4, USP2, GBA, RECQL, BLM, WRN, CDK2, PRKAG3, TFPI, LTA4H, DPP7, BACE2, BACE1, CAPN1, CTSB, IGF1R, INSR, EYA2, HSPA5, NFKB1, TCF7L2, TARDBP, BRD4. • 13. […] Lifespan assays were conducted at 20° C., as described previously. Briefly, synchronous cultures were initiated by lysis of gravid hermaphrodites in alkaline hypochlorite. Worms were selected at the L4 larval stage, placed 50 worms per plate, and transferred at 1- to 2-day intervals onto fresh plates during days 1-7, and at 2- to 3-day intervals after that. […]

[1] = patient; cited from earlier work
mice given Doxorubicin = experiment: Example 33: doxorubicin-induced liver damage (plasma AST); conditions: mouse, in vivo
Protocol: Doxorubicin if administered by mice reduces total body weight and induces expression of FOXO4 foci and IL-6 in the liver.
On the indicated time points, whole blood samples are collected in a Microvette with Lithium Heparin (Sarstedt) for plasma separation and spun for 10 min at 4.6×g. The (clear) supernatant is transferred into regular 1.5 ml tubes and spun again for 5 min at 4.6×g. The supernatants are transferred again into 1.5 ml tubes, snap frozen in liquid N2 and stored at −80° C. [AST] is measured using an AST Activity Assay Kit (Sigma). The samples are incubated with 100 μl reaction mix in a 96 well plate and place at 37° C. The absorbance at 450 nm is determined after 2 minutes for baseline analysis and after 40 minutes for a final analysis. [Urea] is measured using a QuantiChrom Urea Assay Kit (Gentaur). The samples are incubated in 200 μl reaction mix for 10 minutes at room temperature before absorbance is measured at 520 nm. [Creatinine] is measured using Creatinine Assay Kit (Sigma). Samples are incubated with 50 μl reaction mix at 37° C. for 60 minutes and the absorbance is measured at 570 nm. Ratios comparing plasma values after treatment compared to baseline are determined and plotted as % over baseline in scatter plots.

CIA-induced DBA/1J mice = experiment: Example 30: collagen-induced arthritis (CIA); assay type: in vivo; conditions: 0.2 mg/kg
D. melanogaster = conditions: cited from earlier work
Caenorhabditis elegans = conditions: not replicated in another study; cited from earlier work

| SMILES | Mean LS ext., % (C. elegans) | Mean LS* (C. elegans) | also measured |
| --- | --- | --- | --- |
| Cc1[nH]c2ccccc2c1CCNCc1ccc(/C=C/C(=O)NO)cc1 [Compound 1, Panobinostat] | 8.1% | 24 days |  |
| Nc1ccccc1NC(=O)c1ccc(CNC(=O)OCc2cccnc2)cc1 [Compound 2, Entinostat] | 8.6% | 24.1 days |  |
| CC[C@@]1(O)C(=O)OCc2c1cc1n(c2=O)Cc2cc3c(CN(C)C)c(O)ccc3nc2-1 [Compound 3, Topotecan] | 9.7% | 24.3 days |  |
| Oc1cccc(-c2nc(N3CCOCC3)c3oc4ncccc4c3n2)c1 [Compound 4, PI-103] | 8.6% | 24.1 days |  |
| CC(C)CC(=O)Nc1[nH]nc2c1CN(C(=O)C1CCN(C)CC1)C2(C)C [Compound 5, PHA-793887] | 6.9% | 23.7 days |  |
| CC(C)[C@]12O[C@H]1[C@@H]1O[C@]13[C@]1(O[C@H]1C[C@H]1C4=C(CC[C@@]13C)C(=O)OC4)[C@@H]2O [Compound 6, Triptolide] | 10% | 24.4 days |  |
| COc1ccc(-c2ccc3c(N4CCOCC4)nc(N4C[C@@H](C)O[C@@H](C)C4)nc3n2)cc1CO [Compound 7, KU-0063794] | 10.6% | 24.5 days |  |
| CC(/C=C/C(=O)NO)=C\[C@@H](C)C(=O)c1ccc(N(C)C)cc1 [Compound 8, Trichostatin A] | 10% | 24.4 days |  |
| COc1cccc2c1C(=O)c1c(O)c3c(c(O)c1C2=O)C[C@@](O)(C(=O)CO)C[C@@H]3O[C@H]1C[C@H](N)[C@H](O)[C@H](C)O1 [Doxorubicin] |  |  | total lifetime dose above which myocardial damage may lead to congestive heart failure [1]: exceeds 550 mg/m^2; plasma levels of Aspartate Aminotransferase, AST (mice given Doxorubicin): strongly induce plasma levels of Aspartate Aminotransferase |
| CN(Cc1cnc2nc(N)nc(N)c2n1)c1ccc(C(=O)N[C@@H](CCC(=O)O)C(=O)O)cc1 [MTX, methotrexate] |  |  | development of arthritis (CIA-induced DBA/1J mice): strong inhibitory effect on the development of arthritis |
| O=C(c1ccc(F)cc1)C1CCN(CCn2c(=O)[nH]c3ccccc3c2=O)CC1 [ketanserin] |  |  | lifespan (D. melanogaster; fixed-diet conditions): did not affect lifespan; lifespan (D. melanogaster; flies allowed to chose nutrients): increased lifespan |
| CN1CCN2c3ccccc3Cc3ccccc3C2C1 (stereo not shown) [mianserin] |  |  | lifespan (prolongevity effect) (Caenorhabditis elegans): prolongevity effect |
